Values joined by “and” are separate entries in the source; they are usually repeats but may differ in a detail not shown here. Equal values may be shown once.
Test system: human bone marrow MSC
Test: Microarray gene expression analysis of MSC (Illumina Human HT12 Expression BeadChip)
Assay type: cell-based
Conditions: Tre(+) 250 μg/mL, 24 h
Procedure: Human bone marrow MSC were expanded and seeded into six (6) T225 flasks using standard growth medium (Table 1). At 95-99% confluency, cells were thoroughly washed with PBS. Three (3) flasks were replenished with basal media containing 250 μg/mL treprostinil, (+)Tre, and the remaining three (3) flasks were replenished with unsupplemented basal media, (−)Tre. After 24 hours of culture, representative images were captured from (+) Tre and (−) Tre cultures. Conditioned media was collected from each replicate, divided into two samples of appropriate volumes, and analyzed separately for: 1) secreted proteins (Myriad RBM InflammationMAP® 1.0) and 2) exosome RNA content. Cells were lysed directly from culture flasks, processed for total RNA isolation, and analyzed for gene expression by microarray (Illumina Human HT12 Expression BeadChip). Microarray gene expression analysis was also performed on MSC from cultures without (−) or with (+) 250 ug/mL treprostinil. Three (3) biological replicates from each condition were analyzed. Of the 77,612 sequences identified among all replicates, only 24,273 were detected above the arbitrary background of 50 counts. 2,984 RNA sequences were unique to Tre(−) cultures, while 1,781 RNA sequences were unique to Tre(+) cultures (panel A). Genes detected in both conditions were further analyzed for differential expression (panel). […] Genes that are expressed only in Tre(−) cultures (that is to say, completely turned off in the Tre(+) cultures) are shown in Table 5.

In the case of `CCCCC[C@H](O)CC[C@@H]1[C@H]2Cc3cccc(OCC(=O)O)c3C[C@H]2C[C@H]1O` [treprostinil], the “ASPM (NM_018136) expression, Rep 1-3” value was 20 counts and 27 counts and 30 counts, the “ATF3 (NM_001030287) expression, Rep 1-3” value was 1001 counts and 1579 counts and 1041 counts and the “ATP6V0D2 (NM_152565) expression, Rep 1-3” value was 547 counts and 893 counts and 499 counts. For the same compound, the “BMP6 (NM_001718) expression, Rep 1-3” value was 1210 counts and 1581 counts and 1181 counts, the “C11orf96 (NM_001145033) expression, Rep 1-3” value was 2050 counts and 2381 counts and 1885 counts and the “C13orf33 (NM_032849) expression, Rep 1-3” value was 17304 counts and 24329 counts and 16255 counts. The “CALD1 (NM_033140) expression, Rep 1-3” value was 0 counts, the “CD55 (NM_000574) expression, Rep 1-3” value was 7472 counts and 9108 counts and 6555 counts and the “CD55 (NM_001114752) expression, Rep 1-3” value was 2497 counts and 3119 counts and 2372 counts. The “COL6A3 (NM_004369) expression, Rep 1-3” value was 5033 counts and 4570 counts and 4303 counts, the “CPA4 (NM_016352) expression, Rep 1-3” value was 51 counts and 62 counts and 45 counts and the “CXCL12 (NM_199168) expression, Rep 1-3” value was 853 counts and 627 counts and 534 counts. For the same compound, the “DDAH1 (NM_001134445) expression, Rep 1-3” value was 136 counts and 155 counts and 107 counts, the “DKFZp547J0510 (CDNA FLJ42650 fis, clone BRACE3027478) expression, Rep 1-3” value was 183 counts and 135 counts and 125 counts and the “DUSP1 (NM_004417) expression, Rep 1-3” value was 825 counts and 1489 counts and 963 counts. The “FAM84A (NM_145175) expression, Rep 1-3” value was 63 counts and 40 counts and 32 counts, the “GDF5 (NM_000557) expression, Rep 1-3” value was 83 counts and 64 counts and 65 counts and the “GDF15 (NM_004864) expression, Rep 1-3” value was 11450 counts and 18978 counts and 10088 counts. For the same compound, the “GDNF (NM_000514) expression, Rep 1-3” value was 689 counts and 845 counts and 824 counts, the “GPRC5A (NM_003979) expression, Rep 1-3” value was 4151 counts and 5981 counts and 3920 counts and the “HAS1 (NM_001523) expression, Rep 1-3, second entry” value was 1355 counts and 730 counts and 789 counts. For the same compound, the “HSD11B1 (NM_005525) expression, Rep 1-3” value was 822 counts and 966 counts and 758 counts, the “IDH1 (NM_005896) expression, Rep 1-3” value was 1920 counts and 2406 counts and 1792 counts and the “IER3 (NM_003897) expression, Rep 1-3” value was 2769 counts and 3595 counts and 2558 counts. For the same compound, the “IGFBP1 (NM_000596) expression, Rep 1-3” value was 5468 counts and 8123 counts and 5321 counts, the “IL6 (NM_000600) expression, Rep 1-3” value was 6490 counts and 8445 counts and 5640 counts and the “IL11 (NM_000641) expression, Rep 1-3” value was 851 counts and 1237 counts and 700 counts. For the same compound, the “ISLR (NM_005545) expression, Rep 1-3” value was 612 counts and 543 counts and 490 counts, the “KTN1 (NM_001079522) expression, Rep 1-3” value was 531 counts and 612 counts and 596 counts and the “KYNU (NM_003937) expression, Rep 1-3” value was 867 counts and 922 counts and 797 counts. The “LIPG (NM_006033) expression, Rep 1-3” value was 1552 counts and 1946 counts and 1607 counts, the “MEST (NM_177525) expression, Rep 1-3” value was 367 counts and 268 counts and 258 counts and the “METTL7A (NM_014033) expression, Rep 1-3” value was 146 counts and 95 counts and 85 counts. The “MYLK (NM_053025) expression, Rep 1-3” value was 0 counts, the “NAP1L3 (NM_004538) expression, Rep 1-3” value was 68 counts and 35 counts and 42 counts and the “NGFR (NM_002507) expression, Rep 1-3” value was 1217 counts and 1818 counts and 1074 counts. The “NR4A2 (NM_006186) expression, Rep 1-3” value was 635 counts and 810 counts and 592 counts, the “OLFML1 (NM_198474) expression, Rep 1-3 (Table 4)” value was 177 counts and 128 counts and 114 counts and the “PALLD (NM_001166110) expression, Rep 1-3” value was 1158 counts and 885 counts and 1055 counts. The “PAQR5 (NM_017705) expression, Rep 1-3” value was 703 counts and 745 counts and 664 counts, the “PDE4B (NM_001037339) expression, Rep 1-3” value was 1160 counts and 1371 counts and 1056 counts and the “PDE4D (NM_001197221) expression, Rep 1-3” value was 1130 counts and 1170 counts and 1071 counts. The “PDE4D (NM_001197222) expression, Rep 1-3” value was 1417 counts and 2044 counts and 1570 counts, the “PDE5A (NM_033430) expression, Rep 1-3” value was 174 counts and 286 counts and 206 counts and the “PDK4 (NM_002612) expression, Rep 1-3” value was 1296 counts and 1726 counts and 1173 counts. For the same compound, the “PITPNC1 (NM_181671) expression, Rep 1-3” value was 702 counts and 1007 counts and 764 counts, the “PLIN2 (NM_001122) expression, Rep 1-3” value was 82301 counts and 124225 counts and 72254 counts and the “PLOD2 (NM_000935) expression, Rep 1-3” value was 1169 counts and 1679 counts and 925 counts. The “PRELP (NM_002725) expression, Rep 1-3” value was 159 counts and 104 counts and 80 counts, the “PRKAG2 (NM_024429) expression, Rep 1-3” value was 7233 counts and 8152 counts and 6080 counts and the “PTP4A1 (NM_003463) expression, Rep 1-3” value was 849 counts and 696 counts and 510 counts. The “RCAN1 (NM_203418) expression, Rep 1-3” value was 7766 counts and 11997 counts and 6962 counts, the “RCAN2 (NM_001251974) expression, Rep 1-3” value was 129 counts and 109 counts and 76 counts and the “RND3 (NM_005168) expression, Rep 1-3” value was 48372 counts and 65016 counts and 41881 counts. For the same compound, the “S100A4 (NM_002961) expression, Rep 1-3” value was 149 counts and 114 counts and 113 counts, the “SAT1 (transcript variant 2, non-coding RNA) expression, Rep 1-3” value was 1141 counts and 1529 counts and 954 counts and the “SCG2 (NM_003469) expression, Rep 1-3” value was 1014 counts and 1187 counts and 1069 counts. For the same compound, the “SEC31A (NM_001077207) expression, Rep 1-3” value was 737 counts and 887 counts and 573 counts, the “SIK1 (NM_173354) expression, Rep 1-3” value was 1144 counts and 1320 counts and 1086 counts and the “SLC2A12 (NM_145176) expression, Rep 1-3” value was 110 counts and 114 counts and 92 counts. For the same compound, the “SLC3A2 (NM_001013251) expression, Rep 1-3” value was 31831 counts and 39703 counts and 29042 counts and the “SLC6A15 (NM_182767) expression, Rep 1-3” value was 1201 counts and 1568 counts and 1062 counts.

Reference: patent publication US12274684B2, “Treatment of vasculopathy with prostacyclin and mesenchymal stem cells” (United Therapeutics Corporation, priority 2013, dated 2025)
